Laboratory results as given in publication PMC6906394, “Radiomodifying action, Pharmacokinetic and Biodistribution of Ethyl 3, 4, 5-trihydroxybenzoate-Implication in development of radiomitigator” (Scientific Reports, 2019).
Entries after “also recorded” stand apart in the source; their conditions may differ. Read-outs that look alike come from different tables or passages of the source.

Experiment: Biodistribution of GAE in liver, kidney, heart, spleen and brain after oral administration
Format: in vivo, mice
Method: The Biodistribution in mice at 15 min, 30 min, 1 h, 2 h, 4 h, 8 h and 24 h after GAE administration are presented in (Fig. 2A,B). […] Moreover; no GAE peak was identified in untreated control and irradiated animals. In the GAE treated group the concentration of GAE is highest in the liver 3383.1 ± 137.79 ng/g at 1 h, 529.13 ± 102.8 ng/g in the kidney at 2 h and 283.1 ± 20.60 ng/g in the brain at 1 h after GAE administration. […] After 2 h of GAE administration its concentration decreased GAE was found in heart, spleen, and kidney up to 4 h, whereas in brain it found in low concentration up to 2 h.
Black C57BL/6 male mice weighing 28–30 g were maintained at the Institutional Animal Experimental Facility. Animals were fed according to standard chow diet having free access to food and water ad libitum. The environmental condition was maintained at room temperature (22 ± 2 °C), relative humidity (45–60%) and 12 h dark/light cycle controlled facility. In this study, mice were randomly assigned to four different groups (n = 21) i.e untreated control (UC), GAE-treated (GAE), Radiation + GAE (R + GAE), Radiation group (R). Mice fasted overnight with free access to water before being dosed. Isolated GAE from leaves was dissolved with distilled water and ethanol in (7:3 v/v) and administered orally at a dose of 200 mg/kg body weight to GAE-treated and R + GAE treated groups only. The experiment was carried out in accordance to regulation and guideline of the, Committee for the purpose of control and supervision of Experiments on animals (CPCSEA), and study was approved by Institutional Animal Experimental Committee (IAEC), Institute of Nuclear Medicine & Allied Science, Delhi, India.
Group I untreated control (UC), Group II GAE-treated (GAE), Group III Radiation + GAE (R + GAE) and Group IV Radiation (R) exposed. The GAE was administered orally 15 min post irradiation. The whole-body radiation (5 Gy) was carried out using Bhabahtron II, Telecobalt machine, Panacea medical technology, Bangalore. The mice exposed at a dose rate of 0.961 Gy/min at field 35 × 35 cm^2 and the distance maintained from the source was 80 cm.
Blood and tissues samples of mice were collected at 15 min, 30 min, 1 h, 2 h, 4 h, 8 h and 24 h after GAE administration (3mice per time). Blood was obtained from retro orbital plexus of mice and collected in heparinized eppendorf tubes, followed by centrifugation at 2500 g for 15 min. The resulting plasma layer was separated and stored in tubes at −20 °C for further analysis. Tissue samples (brain, heart, liver, kidney, and spleen) were weighed and put into the normal saline solution to remove the blood by blotting on filter paper and were minced and homogenized with physiological saline solution (1:2 w/v) thoroughly in an ice bath. The homogenates were stored at −80 °C until the analysis.
For the extraction from tissue, each aliquot (300 µL) of homogenate (liver, kidney, brain, heart & spleen) was spiked with 20 µL of the IS working solution (100 ng/mL) during analysis; homogenate was dispensed in a standing vial containing 400 µL ACN to precipitate proteins. The biological samples were swirled for 3 min and were centrifuged at 12000 rpm for 10 min at 4 °C. The obtained supernatant was tubed and dried under a stream of nitrogen at 40 °C, the sample was reconstituted with mobile phase, then and 20 µL was injected into the HPLC system.
GAE was separated on the high-performance liquid chromatography (HPLC), SPD-10A consisting of binary HPLC pump, ultraviolet detector, and a Rheodyne manual injector equipped with a 20 µl loop (Shimadzu, Japan). Separation was achieved on Kinetex Biphenyl RP 100 Å column (2.6 µm, 150 × 4.6 mm) (Phenomenex, Torrance) installed with phenyl cartridges (Phenomenex, Torrance). The system was controlled using class VP software (Shimadzu, Japan). […]

[1] = R + GAE treated group (5 Gy), 200 mg/kg b.wt oral
[2] = after GAE administration, 200 mg/kg b.wt oral

- concentration of GAE (liver, tissue implied by context) [1]: 1928.5 ± 39.63 ng/g
- kidney concentration of GAE [1]: 307.77 ± 7.80 ng/g
- time up to which GAE was found in brain (low concentration) [2]: up to 2 h
- time up to which GAE was found in heart, spleen and kidney [2]: up to 4 h
- tissues with the highest concentration (biodistribution, 200 mg/kg b.wt oral): liver and kidney
- peak GAE concentration in liver relative to other tissues (both GAE treated and R + GAE treated groups): two fold higher
- concentration at 1 h (male, C57BL/6, mouse, brain, po, 200 mg/kg, GAE treated group, 200 mg/kg b.wt oral, read-out: concentration of GAE in the brain): 283 ± 20.6 ng/g
- concentration at 1 h (male, C57BL/6, mouse, heart, po, 200 mg/kg, GAE treated animals, 200 mg/kg b.wt oral, read-out: GAE concentration in the heart): 216 ng/g
- concentration at 1 h (male, C57BL/6, mouse, heart, po, 200 mg/kg, R + GAE group (5 Gy), 200 mg/kg b.wt oral, read-out: GAE concentration in the heart): 506 ± 39.4 ng/g
- concentration at 2 h (male, C57BL/6, mouse, kidney, po, 200 mg/kg, GAE treated group, 2 h, 200 mg/kg b.wt oral): 529 ± 103 ng/g
- concentration at 1 h (male, C57BL/6, mouse, liver, po, 200 mg/kg, GAE treated group, 200 mg/kg b.wt oral, read-out: concentration of GAE in the liver): 3380 ± 138 ng/g
- concentration at 1 h (male, C57BL/6, mouse, spleen, po, 200 mg/kg, GAE treated animals, 200 mg/kg b.wt oral, read-out: GAE concentration in the spleen): 484 ng/g
- concentration at 1 h (male, C57BL/6, mouse, spleen, po, 200 mg/kg, R + GAE group (5 Gy), 200 mg/kg b.wt oral, read-out: GAE concentration in the spleen): 522 ± 73.2 ng/g
Structure (SMILES): CCOC(=O)c1cc(O)c(O)c(O)c1 [GAE, Ethyl 3,4,5-trihydroxybenzoate]
- crossing of the blood-brain barrier (GAE detected in brain in both GAE and R + GAE treated groups): crosses the blood-brain barrier; also recorded: could cross the blood-brain barrier
